The text below walks through data of patent US20240270762A1, “PENICILLIN-BINDING PROTEIN INHIBITORS” (priority 2021, published 2024).

≈ marks a conversion by molar mass, not a printed value.

Assay [1] addresses T1, PBP3 from Pseudomonas aeruginosa (PAO1) (Pseudomonas aeruginosa, UniProt G3XD46).
T1 construct: made in house
Put plainly: Bocillin-FL fluorescence polarization competition binding, P. aeruginosa PBP3. The settings on record: Binding affinity to P. aeruginosa PBP3; fluorescence polarization competition binding assay using Bocillin-FL; read-out: P. aeruginosa PBP3 Potency. The essentials:
(§1)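 Purified PBPs pre-incubated with inhibitor (E. coli PBP3 1.5 μM, 30 min; P. aeruginosa PBP3 0.75 μM, A. baumannii PBP1a 1 μM and PBP3 0.2 μM, 15 min), then Bocillin-FL 0.1 μM (0.05 μM for PBP1a) added; FP read up to 60 min. EC50 = concentration halving bound Bocillin-FL.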
A general note: Polarisation of emitted light reports the rotation of a fluorescent probe.

The target in assay [2] is T2, PBP3 from Acinetobacter baumannii (ATCC 19606) (Acinetobacter baumannii, UniProt A0ABX6CK25).
T2 sequence (A0ABX6CK25 64-610): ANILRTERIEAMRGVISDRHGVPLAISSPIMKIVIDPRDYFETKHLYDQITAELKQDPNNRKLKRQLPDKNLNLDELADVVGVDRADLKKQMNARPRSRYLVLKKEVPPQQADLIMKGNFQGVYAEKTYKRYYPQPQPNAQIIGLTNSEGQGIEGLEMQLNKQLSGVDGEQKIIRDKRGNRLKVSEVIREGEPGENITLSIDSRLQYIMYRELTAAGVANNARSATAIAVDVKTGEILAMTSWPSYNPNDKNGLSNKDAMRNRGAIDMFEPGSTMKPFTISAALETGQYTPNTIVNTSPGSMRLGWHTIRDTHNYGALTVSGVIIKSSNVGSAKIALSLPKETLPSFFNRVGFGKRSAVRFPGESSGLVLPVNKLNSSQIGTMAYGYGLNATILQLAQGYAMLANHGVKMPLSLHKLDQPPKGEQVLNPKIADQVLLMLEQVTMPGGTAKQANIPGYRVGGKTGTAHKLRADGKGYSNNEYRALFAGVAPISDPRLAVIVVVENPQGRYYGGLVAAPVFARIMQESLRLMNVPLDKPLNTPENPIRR
Put plainly: Bocillin-FL fluorescence polarization competition binding, A. baumannii PBP3. The note with it: fluorescence polarization competition binding assay using Bocillin-FL; read-out: A. baumannii PBP3 Potency. The procedure, abridged: as §1

Assay [3] deals with A. baumannii ATCC 17978. Put plainly: microbe, parasite or virus in culture. The format is cell-based. The settings on record: Acinetobacter baumannii, ATCC17978, read-out: MIC, A. baumannii ATCC 17978.
The test system of assay [4] is P. aeruginosa (ΔmexAB-oprM). Briefly: Broth microdilution MIC in iron-depleted CAMHB (IDM). Format: cell-based. The settings on record: Pseudomonas aeruginosa; iron-depleted CAMHB (IDM); […]; read-out: Minimum inhibitory concentration, P. aeruginosa ΔmexAB-oprM.
In assay [5] the test system is P. aeruginosa CDC-0054. Put plainly: microbe, parasite or virus in culture. The format is cell-based. The note with it: Pseudomonas aeruginosa, CDC0054, read-out: Minimum inhibitory concentration, P. aeruginosa CDC-0054.
Assay [6] deals with P. aeruginosa CDC-0090. Briefly: microbe, parasite or virus in culture. Format: cell-based. The settings on record: Pseudomonas aeruginosa, CDC0090, read-out: Minimum inhibitory concentration, P. aeruginosa CDC-0090.
Assay [7] has as its system P. aeruginosa CDC-0095. Put plainly: microbe, parasite or virus in culture. The note with it: Pseudomonas aeruginosa, CDC0095, read-out: Minimum inhibitory concentration, P. aeruginosa CDC-0095. Format: cell-based.
Assay [8] relates to A. baumannii 1258916. Briefly: microbe, parasite or virus in culture. Format: cell-based, Acinetobacter baumannii. The note with it: Acinetobacter baumannii, 1258916, read-out: MIC, A. baumannii 1258916.
Assay [9] deals with B. thailandensis ATCC 700388. Briefly: microbe, parasite or virus in culture. Format: cell-based. The note with it: Burkholderia thailandensis, ATCC700388, read-out: Minimum inhibitory concentration (MIC), B. thailandensis ATCC 700388.
The test system of assay [10] is P. aeruginosa CDC-0110. Put plainly: microbe, parasite or virus in culture. Format: cell-based. The note with it: Pseudomonas aeruginosa, CDC0110, read-out: Minimum inhibitory concentration, P. aeruginosa CDC-0110.

T1 sequence (G3XD46 whole entry): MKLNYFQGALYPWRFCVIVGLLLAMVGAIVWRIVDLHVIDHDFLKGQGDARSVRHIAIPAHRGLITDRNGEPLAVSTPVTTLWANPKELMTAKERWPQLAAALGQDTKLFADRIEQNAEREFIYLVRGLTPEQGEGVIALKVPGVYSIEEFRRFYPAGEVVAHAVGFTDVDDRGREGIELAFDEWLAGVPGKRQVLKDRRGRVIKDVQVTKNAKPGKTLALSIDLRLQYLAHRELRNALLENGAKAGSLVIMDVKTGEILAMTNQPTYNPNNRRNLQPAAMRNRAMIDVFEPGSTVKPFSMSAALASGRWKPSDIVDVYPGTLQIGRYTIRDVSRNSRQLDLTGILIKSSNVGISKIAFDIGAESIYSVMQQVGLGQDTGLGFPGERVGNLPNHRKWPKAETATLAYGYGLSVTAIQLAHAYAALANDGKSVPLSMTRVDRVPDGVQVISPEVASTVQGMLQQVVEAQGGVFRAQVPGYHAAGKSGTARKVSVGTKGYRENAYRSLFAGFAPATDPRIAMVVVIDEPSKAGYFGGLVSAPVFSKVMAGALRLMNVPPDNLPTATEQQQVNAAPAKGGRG

On to `O=C(O)c1c(F)ccc2c1OB(O)[C@@H](NC(=O)[C@H](NC(=O)N1CCN(C3CCN(C(=O)Nc4cc(O)cc(F)c4)CC3)C1=O)c1cc(F)c(O)c(O)c1Cl)C2` (single isomer, unassigned) [Example 450], for which the IC50 in assay [1] and in [2] was less than 10 µM in each case. The MIC in [3], in assay [4], in assay [5], in [6], in assay [7] and in assay [8] was less than 1 µg/mL each time. Moreover, the MIC in assay [9] and in assay [10] was less than 1 µg/mL throughout.

As to `O=C(O)c1c(F)ccc2c1OB(O)[C@@H](NC(=O)[C@H](NC(=O)N1CCN(C3CCN(C(=O)Nc4cc(O)ccc4F)CC3)C1=O)c1cc(F)c(O)c(O)c1Cl)C2` (single isomer, unassigned) [Example 451], the IC50 in assay [1] and in assay [2] was less than 10 µM in each case. In addition, the MIC in assay [3], in [4], in [5], in [6], in assay [7] and in [8] was less than 1 µg/mL each time. The MIC in [9] and in [10] was less than 1 µg/mL each time.

As to `O=C(O)c1c(F)ccc2c1OB(O)[C@@H](NC(=O)[C@H](NC(=O)N1CCN(C3CCN(C(=O)Nc4c(F)ccc(O)c4F)CC3)C1=O)c1cc(F)c(O)c(O)c1Cl)C2` (single isomer, unassigned) [Example 454], the IC50 in [1] and in assay [2] was less than 10 µM each time. For the same compound, the MIC in [3] was less than 1 µg/mL; in [4], less than 1 µg/mL; in assay [5], less than 1 µg/mL; in assay [6], 2 to 4 µg/mL (≈ 2.47 to 4.95 µM); in [7], 2 to 4 µg/mL (≈ 2.47 to 4.95 µM); in assay [8], less than 1 µg/mL. Further, the MIC in [9] and in assay [10] was less than 1 µg/mL each time.

As to `O=C(O)c1c(F)ccc2c1OB(O)[C@@H](NC(=O)[C@H](NC(=O)N1CCN(C3CCN(C(=O)Nc4c(F)ccc(O)c4Cl)CC3)C1=O)c1cc(F)c(O)c(O)c1Cl)C2` (single isomer, unassigned) [Example 455], the IC50 in [1] and in [2] was less than 10 µM each time. The MIC in assay [3], in assay [4], in assay [5], in assay [6], in assay [7] and in assay [8] was less than 1 µg/mL in each case. Also, the MIC in [9] and in [10] was less than 1 µg/mL in each case.

`O=C(O)c1c(F)ccc2c1OB(O)[C@@H](NC(=O)[C@H](NC(=O)N1CCN(C3CCN(C(=O)c4ccc(O)cc4)CC3)C1=O)c1cc(F)c(O)c(O)c1Cl)C2` (single isomer, unassigned) [Example 463]: the IC50 in assay [1] and in [2] was less than 10 µM throughout. Besides, the MIC in assay [3], in assay [4], in assay [5], in assay [6], in [7] and in assay [8] was less than 1 µg/mL each time. Further, the MIC in [9] and in assay [10] was less than 1 µg/mL each time.

With `O=C(O)c1cccc2c1OB(O)[C@@H](NC(=O)C(NC(=O)N1CCN(Cc3cc(F)c(O)c(O)c3Cl)C(=O)C1=O)c1ccc(P(=O)(O)O)cc1)C2` (stereo partly drawn) [Example 164, (3R)-3-(2-(4-(2-chloro-5-fluoro-3,4-dihydroxybenzyl)-2,3-dioxopiperazine-1-carboxamido)-2-(4-phosphonophenyl)acetamido)-2-hydroxy-3,4-dihydro-2H-benzo[e][1,2]oxaborinine-8-carboxylic acid], the IC50 in assay [1] and in [2] was less than 10 µM each time. Moreover, the MIC in assay [3], in assay [4], in assay [5], in [6], in assay [7] and in assay [8] was less than 1 µg/mL throughout. For the same compound, the MIC in [9] and in [10] was less than 1 µg/mL each time.

Take `O=C(O)c1c(F)ccc2c1OB(O)[C@@H](NC(=O)[C@H](NC(=O)N1CCN(Cc3ccc(O)c(O)c3Cl)C(=O)C1=O)c1ccc(P(=O)(O)O)c(F)c1F)C2` [Example 166, (R)-3-((R)-2-(4-(2-chloro-3,4-dihydroxybenzyl)-2,3-dioxopiperazine-1-carboxamido)-2-(2,3-difluoro-4-phosphonophenyl)acetamido)-7-fluoro-2-hydroxy-3,4-dihydro-2H-benzo[e][1,2]oxaborinine-8-carboxylic acid]: the IC50 in assay [1] and in assay [2] was less than 10 µM each time. In addition, the MIC in assay [3] is less than 1 µg/mL; in assay [4] it was less than 1 µg/mL; in assay [5] it was less than 1 µg/mL; in [6], 2 to 4 µg/mL (≈ 2.59 to 5.19 µM); in assay [7], less than 1 µg/mL; in [8], less than 1 µg/mL. In addition, the MIC in [9] and in assay [10] was less than 1 µg/mL each time.

`O=C(NCCS(=O)(=O)N1CCN(C(=O)N[C@H](C(=O)N[C@H]2Cc3ccc(F)c(C(=O)O)c3OB2O)c2ccc(P(=O)(O)O)cc2)C1=O)c1ccc(O)c(O)c1Cl` [Example 167, (R)-3-((S)-2-(3-((2-(2-chloro-3,4-dihydroxybenzamido)ethyl)sulfonyl)-2-oxoimidazolidine-1-carboxamido)-2-(4-phosphonophenyl)acetamido)-7-fluoro-2-hydroxy-3,4-dihydro-2H-benzo[e][1,2]oxaborinine-8-carboxylic acid]: the results for the IC50 in [1] and in [2] were 50 to 250 µM and 10 to 50 µM, respectively. The MIC in [3] is 32 to 64 µg/mL (≈ 38.7 to 77.3 µM); in assay [4] it was greater than 128 µg/mL; in assay [5] it was greater than 128 µg/mL; in assay [6], greater than 128 µg/mL; in [7] it was greater than 128 µg/mL; in assay [8], greater than 128 µg/mL. The MIC in [9] and in [10] was greater than 128 µg/mL each time.

For `O=C(O)c1c(F)ccc2c1OB(O)[C@@H](NC(=O)[C@H](NC(=O)N1CCN(C3CCN(C(=O)c4ccc(F)c(O)c4Cl)CC3)C1=O)c1cc(F)c(O)c(O)c1Cl)C2` [Example 438, (R)-3-((R)-2-(3-(1-(2-chloro-4-fluoro-3-hydroxybenzoyl)piperidin-4-yl)-2-oxoimidazolidine-1-carboxamido)-2-(2-chloro-5-fluoro-3,4-dihydroxyphenyl)acetamido)-7-fluoro-2-hydroxy-3,4-dihydro-2H-benzo[e][1,2]oxaborinine-8-carboxylic acid], the IC50 in [1] and in assay [2] was less than 10 µM each time. Also, the MIC was less than 1 µg/mL in assay [3]; less than 1 µg/mL in assay [4]; less than 1 µg/mL in assay [5]; 2 to 4 µg/mL (≈ 2.47 to 4.94 µM) in [6]; less than 1 µg/mL in assay [7]; less than 1 µg/mL in [8]. For the same compound, the MIC in assay [9] and in assay [10] was less than 1 µg/mL in each case.

As for `O=C(O)c1c(F)ccc2c1OB(O)[C@@H](NC(=O)[C@H](NC(=O)N1CCN(C3CCN(C(=O)Nc4cccc(O)c4)CC3)C1=O)c1cc(F)c(O)c(O)c1Cl)C2` [Example 445, (R)-3-((R)-2-(2-chloro-5-fluoro-3,4-dihydroxyphenyl)-2-(3-(1-((3-hydroxyphenyl)carbamoyl)piperidin-4-yl)-2-oxoimidazolidine-1-carboxamido)acetamido)-7-fluoro-2-hydroxy-3,4-dihydro-2H-benzo[e][1,2]oxaborinine-8-carboxylic acid], the IC50 in [1] and in assay [2] was less than 10 µM each time. For the same compound, the MIC in [3], in assay [4], in assay [5], in assay [6], in assay [7] and in assay [8] was less than 1 µg/mL each time. Further, the MIC in assay [9] and in assay [10] was less than 1 µg/mL each time.
